This is an account of results in patent US7754913B2, “Synthesis of isotopically labeled alpha-keto acids and esters” (Cambridge Isotope Laboratories, Inc., priority 2006, dated 2010).

A short description of series [1]: Concentration studies: stability of pyruvic acid solutions in water at higher concentrations. It is filed as physicochemical. The note with it: each of the concentrations of Table 2; light for 6-weeks; about 22° C. to about 26° C. The procedure:
Each of these commercial solutions were subjected to light for 6-weeks at temperatures ranging from about 22° C. to about 26° C. At each of the concentrations listed below, it was discovered that the pyruvic acid solutions were stable.

For series [2] the following is noted: cited from earlier work.
The nature of series [3]: Shelf storage stability of [1-13C] pyruvic acid in water, 1H and 13C NMR spectra compared. The format is physicochemical. The note with it: 0.025M in water; for Storage stability, Duration 12 weeks / Storage stability, Duration 17 weeks: NMR; for Shelf stability (NMR spectra unchanged): each of the samples, all conditions of Table 1. The protocol:
Samples of isotopically labeled [1-^13C] pyruvic acid, having Formula VI and synthesized as discussed immediately below, were subjected to various conditions as depicted in Table 1, in order to establish the compound's shelf storage stability.
The resulting [1-^13C] pyruvic acid was tested as follows in Table 1:
^1H and ^13C NMR spectra of the distilled [1-^13C] pyruvic acid in water (0.025M) were acquired at the onset of the study and prior to exposing the samples to the various conditions specified in Table 1. ^1H and ^13C NMR spectra were again acquired for each of the samples after being exposed to the aforementioned conditions on a weekly basis for 12-weeks. The spectra acquired after exposure were compared visually and appeared to remain unchanged as compared with the spectra acquired prior to exposure, i.e. the spectra were as expected for [1-^13C] pyruvic acid in water. As such, it was concluded that each of the samples were shelf stable. Similarly, ^1H and ^13C NMR spectra acquired after 17-weeks of exposure remained unchanged as compared with the spectra acquired prior to exposure.

Setting [4] is: Sample 3, Room temperature (about 22° C. to about 26° C.), Dark.
[5] abbreviates: Sample 4, Room temperature (about 22° C. to about 26° C.), Light.

Turning to `CC(=O)C(=O)O` [Pyruvic acid, 2-oxopropanoic acid, reference compound], the “Stability of solutions in water” value in series [1] is reported as “stable”. In addition, in series [2], the Solubility in water result is recorded as “soluble”.

For `CC(=O)[13C](=O)O` [[1-^13C] pyruvic acid], the “Storage stability, Duration 12 weeks” value is given as “Stable” in series [3] (Sample 1, −10° C., Dark); “Stable” in series [3] (Sample 2, 4° C., Dark); “Stable” in series [3] (setting [4]); “Stable” in series [3] (setting [5]). Also, the “Storage stability, Duration 17 weeks” value in series [3] (Sample 1, −10° C., Dark) was “Stable”; in series [3] (Sample 2, 4° C., Dark) it was “Stable”; in series [3] (setting [4]), “Stable”; in series [3] (setting [5]), “Stable”. Further, the “Shelf stability (NMR spectra unchanged)” value in series [3] (after 17-weeks) and in series [3] (weekly for 12-weeks) was “shelf stable” throughout.
